Series [1] is described as follows: HepG2 72 h cytotoxicity (CellTiter-Glo). The format is cell-based, human. The settings on record: human. On the procedure:
Two mammalian cell lines were used for counter-screening for general cytotoxicity of hit compounds: human embryonic kidney cells (HEK293T; ATCC CRL-3216) and human hepatocellular carcinoma cells (HepG2; ATCC HB-8065). […] Compounds were pre-spotted into tissue culture-treated white solid-bottomed 1536-well plates (Greiner) in a 1:3 dose-response dilution (top concentration 20 μM). HEK293T and HepG2 cells were diluted to 75×10^3 cells/mL and 150×10^3 cells/mL, respectively, and 5 μL/well were dispensed into assay plates with a MultiFlo FX Multi-Mode Dispenser (Biotek). […] At the completion of the assay, CellTiter-Glo (Promega) was prepared at 1:2 (reagent:water) of the manufacturer’s instructions, and 2 μL were dispensed into each well. After a 5 min incubation at room temperature, luminescence readings were measured with an EnVision Multilabel Plate Reader (Perkin Elmer). […] were uploaded into Genedata Screener (v13.0-Standard), and data normalized to DMSO- and puromycin-treated wells. A four-parameter non-linear regression curve fit was applied to dose-response data using Genedata to determine the half maximal cytotoxic concentration (CC50) of each compound.
In general terms: Cellular ATP, detected with luciferase, serves as a proxy for viable cell number.

Series [2] has as its system Cryptosporidium hominis (TU502). In words: C. hominis proliferation in HCT-8 cells, 48 h high-content imaging assay. The format is cell-based. The settings on record: Cryptosporidium hominis; for EC50: in HCT-8 cells, 48 h, value (SD; n), read-out: C. hominis 48H Assay EC50 [µM] (SD; n). As to the method:
Methods for continuous, in vitro cultivation of Cryptosporidium spp. have not been well established. Instead, in vivo oocyst propagation of C. parvum is performed in calves, a more promiscuous Cryptosporidium species for animal and human infections. For C. hominis, gnotobiotic piglets are the primary means of propagation. The calf is the more accessible model, making C. parvum the more convenient species to screen. However, C. hominis is equally clinically relevant with regards to human cryptosporidiosis. […] High purity powders of the 10 filtered C. parvum Bioactives screen hits and both GHCDL screen hits were tested against C. hominis (TU502) to confirm activity against both species.
Cells were then plated (5 μL/well) into 1536-well assay plates at a density of 5.5×10^5 cells/mL (2,750 cells/well).
C. parvum oocysts (Iowa strain, isolated from infected calves) were purchased from the Sterling Parasitology Laboratory, University of Arizona, and stored at 4°C for ≤ 3 months in an antibiotic solution (0.01% Tween 20 containing 100 U/mL penicillin and 100 μg/mL gentamicin). C. hominis oocysts (TU502, isolated from gnotobiotic piglets) were purchased from the Tzipori Laboratory, Cummings School of Veterinary Medicine, Tufts University, and stored at 4°C for ≤ 2 weeks in an antibiotic solution (100 U/mL penicillin and 100 μg/mL streptomycin). For infection of assay plates, 24 h after cell seeding, oocysts were excysted and prepared for inoculation as previously described. Briefly, the oocysts were diluted into 1 mL pre-warmed 10 mM HCl and then incubated in a 37°C water bath for 10 min. Oocysts were then pelleted at 3,000×g for 1 min in a microcentrifuge (Thermo), and the supernatant was carefully aspirated. Oocysts were resuspended in 2 mM sodium taurocholate in DPBS++ (with 0.9 mM CaCl2 and 0.5 mM MgCl2) and incubated at room temperature for 20 min. After incubation in bile salts, the oocysts were diluted 1:100 and free sporozoites and intact oocysts were enumerated to determine the percentage of excystation.
Plates were then washed twice with phosphate buffered saline (PBS). […] To prevent non-specific binding, the cells were blocked with SuperBlock™ T20 blocking agent (Thermo) for 1 h at room temperature. Cryptosporidium parasites were stained with 1 μg/mL fluorescein isothiocyanate (FITC)-conjugated Vicia villosa lectin (Vector Laboratories) in 1:10 diluted SuperBlock™ in PBS-T, supplemented with 3 μM 4',6-diamidino-2-phenylindole (DAPI) to visualize host cell nuclei. Staining was for 1 h at room temperature in the dark. Finally, cells were washed twice with PBS-T and the plates were sealed with adhesive foil. The plates were imaged with a CellInsight CX5 High Content Screening Platform (Thermo) with a 10× objective. […] The software identified primary objects (HCT-8 host cells) and spots within allowed distances to the nuclei (Cryptosporidium). Both cytotoxicity against HCT-8 cells (number of nuclei relative to DMSO-treated controls) and Cryptosporidium inhibition (spot counts relative to DMSO-treated controls) were assessed.
Images were processed by the HCS Studio Scan software, and Selected Object Count (HCT-8 cells) and Spot Count (Cryptosporidium) were analyzed in Genedata Screener (v13.0-Standard). Spot Count and Selected Object Count were normalized to neutral controls minus inhibitors (floxuridine for Spot Count, and puromycin for Selected Object Count).

Details of series [3]: method as in PMID 2656045. The following applies: cited from earlier work.
A further series concerns C. parvum. In words: Washout assay: 3-h treatments over the asexual life cycle of C. parvum. The settings on record: 3-h treatment then washout; even at 3×EC99.
A further series relates to Cryptosporidium. More on the design: method as in PMID 23878324. The settings on record: once per day for ten consecutive days at 100 mg/kg; cited from earlier work.

pEC50: −log10 of the molar value. Like-named read-outs stand apart in the source and are kept apart here. Where only a bound is given, the exact number is not on record here.

Protocol for C. parvum: We examined short, three-hour compound treatments of in vitro cultures, followed by compound washout, that covered the complete asexual life cycle, believed to be 13–15 h post invasion [36]. […] The treatment interval lasted 3 h before washout with fresh medium; infected cells were allowed to grow until 48 h post infection before fixation. […] As CFZ is very lipophilic, we sought to determine whether intracellular accumulation was affecting the strong inhibition across each time point.
Infected cells were treated in six 3-h increments over the course of 15 h (the presumed in vitro asexual lifecycle of C. parvum). HCT-8 cells were seeded (25 μL/well) into clear-bottomed 384-well plates (Greiner) at a density of 6.0×10^5 cells/mL (15,000 cells/well) in assay medium, and allowed to grow 24 h at 37°C with 5% CO2 in a humidified tissue culture incubator, covered with a custom metal lid (The Genomics Institute of the Novartis Research Foundation) to reduce evaporation. After 24 h, and 2 h before infecting with C. parvum oocysts (time -2 hpi), the treatment time course was initiated. […] DMSO was used as a negative control. Cell medium was removed from designated wells and replaced with medium containing either compound or DMSO. […] Plates were then spun at 150×g for 3 min, and kept at 37°C with 5% CO2 in a humidified tissue culture incubator during drug treatment intervals. At the end of each 3 h time point, infected cells were carefully washed three times with fresh, pre-warmed assay medium, and the next set of wells for the subsequent time point were treated. The final time point extended to 18 h, to cover re-invasion of merozoites into new HCT-8 cells. After the final compound treatment was washed off, infected cells were allowed to grow until 48 h post infection.

One may read the CC50 as the concentration giving 50% cytotoxicity. Broadly, the pEC50 is the EC50 on a negative log10 scale, so that one unit is a factor of ten. In general, EC50 refers to the concentration giving half of the maximal effect. Take `CC(C)/N=c1\cc2n(-c3ccc(Cl)cc3)c3ccccc3nc-2cc1Nc1ccc(Cl)cc1` [Clofazimine]: in series [1] (HepG2 cells, 72 h, value (SD; n), read-out: HepG2 72H Cytotoxicity CC50 [µM] (SD; n)), the CC50 at 72 h was above 20 µM. For the same molecule, in series [2] (HCT-8, same in vitro host cell line, read-out: EC50 against C. hominis), the pEC50 is 6.47. The EC50 in series [2] came to 0.341 µM. For the same molecule, in series [3], the drug half-life is ~ 70 days.
With `CCOc1ccc2cc(-c3nn(CC4CCN(C)CC4)c4ncnc(N)c34)ccc2c1` [BKI-1294], in the series on C. parvum, the “inhibition of parasite growth at all time points other than 10–13 h post infection” value is below 60%. The molecule further came in with a CC50 at 72 h in series [1] of 11.1 µM. In the series with Cryptosporidium, the “efficacy in mouse model of chronic cryptosporidiosis” value is on record as “demonstrated efficacy”. Further, in series [2], the EC50 is 0.457 µM.

These data come from paper PMC5310922, “A high-throughput phenotypic screen identifies clofazimine as a potential treatment for cryptosporidiosis” (PLoS Neglected Tropical Diseases, 2017).
